Where “and” joins values, the source holds several entries; their conditions need not be identical. Identical values can stand only once.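 Following 48 hours of exposure in 96-well plates, responses at five concentrations were used to interpolate endpoints linearly. GI50 is the concentration that inhibits growth by half. The concentration for full growth arrest is given as TGI.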
Tests used:
Test in all cases: growth of human tumour cells (NCI), 48 h
SF-295 CNS = test system: SF-295 CNS
SN12C renal = test system: SN12C renal
SF-539 CNS = test system: SF-539 CNS
SK-MEL-5 melanoma = test system: SK-MEL-5 melanoma
OVCAR-5 ovarian = test system: OVCAR-5 ovarian
TK-10 renal = test system: TK-10 renal
T-47D breast = test system: T-47D breast
HT29 colon = test system: HT29 colon
HCC-2998 colon = test system: HCC-2998 colon
UACC-62 melanoma = test system: UACC-62 melanoma

SMILES | GI50 (SF-295 CNS) | TGI (SF-295 CNS) | GI50 (SN12C renal) | TGI (SN12C renal) | GI50 (SF-539 CNS) | TGI (SF-539 CNS) | GI50 (SK-MEL-5 melanoma) | TGI (SK-MEL-5 melanoma) | GI50 (OVCAR-5 ovarian) | TGI (OVCAR-5 ovarian) | GI50 (TK-10 renal) | TGI (TK-10 renal) | GI50 (T-47D breast) | TGI (T-47D breast) | GI50 (HT29 colon) | TGI (HT29 colon) | GI50 (HCC-2998 colon) | TGI (HCC-2998 colon) | GI50 (UACC-62 melanoma) | TGI (UACC-62 melanoma)
Cn1nccc1Nc1nccc(-c2ccn([C@H](CO)c3ccc(Cl)c(F)c3)c(=O)c2)n1 | 76.3 µM | > 100 µM | 10 µM | > 100 µM | 2.24 µM | 6.91 µM | 12.5 µM | 43.3 µM | 2.55 µM | > 100 µM | 24 µM | > 100 µM | 26.5 µM | > 100 µM | 0.17 µM | > 100 µM | 0.588 µM | 23.7 µM | 0.0922 µM | > 59.3 µM
O=C1C=C[C@H](O)[C@@]2(CO)O[C@@H]12 | 8.26 µM | 38.5 µM | 8.53 µM | 22.4 µM | 11.6 µM | 25.6 µM | 16.1 µM | 29.7 µM | 15.6 µM | 29 µM | 16.1 µM | 29.8 µM | 8.16 µM | 26.3 µM | 6.32 µM | 19.7 µM | 17.2 µM | 31 µM | 4.55 µM | 14.3 µM
CCN(CC)Cc1cc(Nc2nc(NC3CCC(N(C)C)CC3)c3ccccc3n2)ccc1OC (centres undefined) | 2.33 µM | 7.01 µM | 11.3 µM | 24.5 µM | 3.3 µM | 13.3 µM | 1.54 µM | 2.87 µM | 5 µM | 20.7 µM | 12 µM | 25.4 µM | 5.4 µM | 18.9 µM | 2.42 µM | 7.11 µM | 10.4 µM | 22.2 µM | 13.2 µM | 27.2 µM
COC1N(C2CC(O)C(CO)O2)C(=O)NC(=O)C1(F)Br (centres undefined) | 21.9 µM | 50 µM and > 100 µM | 15.6 µM | 50 µM and > 100 µM | 6.8 µM | 50 µM | 38.2 µM | 50 µM and > 89.7 µM | > 50 µM | > 100 µM | > 50 µM | > 100 µM | – | > 100 µM | 14.9 µM | 50 µM and > 100 µM | 1.14 µM | 50 µM and 98 µM | > 50 µM | > 100 µM
Nc1ncc(Cc2ccc3c(c2)OCO3)c(N)n1 | – | > 100 µM | – | > 100 µM | – | > 100 µM | – | > 100 µM | – | > 100 µM | – | > 100 µM | – | > 100 µM | – | > 100 µM | – | > 100 µM | – | > 100 µM
Cc1ccc(O)cc1Nc1ccnc2ccc(S(C)(=O)=O)cc12 | 3.34 µM | > 25 µM | 2.82 µM | > 25 µM | 1.08 µM | 7.62 µM | 10.4 µM | > 25 µM | 1.41 µM | 14.5 µM | 0.484 µM | 2.23 µM | 1.59 µM | 24.3 µM | 0.433 µM | 2.92 µM | 10 µM | > 25 µM | 0.843 µM | 10.4 µM

Reference: PubChem BioAssay (NCI)
